According to US8937058B2, “17-hydroxy-19-nor-21-carboxylic acid-steroid γ-lactone derivative, use thereof, and medicament containing the derivative” (priority 2007, dated 2015):
Like-named read-outs stand apart in the source and are kept apart here.

Tests used:
[1] = target: T1, mineralocorticoid receptor (Homo sapiens (Human), UniProt P08235); assay: Mineralocorticoid receptor binding test (displacement of 3H-aldosterone, cytosol from Hi5 insect cells); conditions: reference substance 3H-aldosterone
T1 sequence (P08235 whole entry): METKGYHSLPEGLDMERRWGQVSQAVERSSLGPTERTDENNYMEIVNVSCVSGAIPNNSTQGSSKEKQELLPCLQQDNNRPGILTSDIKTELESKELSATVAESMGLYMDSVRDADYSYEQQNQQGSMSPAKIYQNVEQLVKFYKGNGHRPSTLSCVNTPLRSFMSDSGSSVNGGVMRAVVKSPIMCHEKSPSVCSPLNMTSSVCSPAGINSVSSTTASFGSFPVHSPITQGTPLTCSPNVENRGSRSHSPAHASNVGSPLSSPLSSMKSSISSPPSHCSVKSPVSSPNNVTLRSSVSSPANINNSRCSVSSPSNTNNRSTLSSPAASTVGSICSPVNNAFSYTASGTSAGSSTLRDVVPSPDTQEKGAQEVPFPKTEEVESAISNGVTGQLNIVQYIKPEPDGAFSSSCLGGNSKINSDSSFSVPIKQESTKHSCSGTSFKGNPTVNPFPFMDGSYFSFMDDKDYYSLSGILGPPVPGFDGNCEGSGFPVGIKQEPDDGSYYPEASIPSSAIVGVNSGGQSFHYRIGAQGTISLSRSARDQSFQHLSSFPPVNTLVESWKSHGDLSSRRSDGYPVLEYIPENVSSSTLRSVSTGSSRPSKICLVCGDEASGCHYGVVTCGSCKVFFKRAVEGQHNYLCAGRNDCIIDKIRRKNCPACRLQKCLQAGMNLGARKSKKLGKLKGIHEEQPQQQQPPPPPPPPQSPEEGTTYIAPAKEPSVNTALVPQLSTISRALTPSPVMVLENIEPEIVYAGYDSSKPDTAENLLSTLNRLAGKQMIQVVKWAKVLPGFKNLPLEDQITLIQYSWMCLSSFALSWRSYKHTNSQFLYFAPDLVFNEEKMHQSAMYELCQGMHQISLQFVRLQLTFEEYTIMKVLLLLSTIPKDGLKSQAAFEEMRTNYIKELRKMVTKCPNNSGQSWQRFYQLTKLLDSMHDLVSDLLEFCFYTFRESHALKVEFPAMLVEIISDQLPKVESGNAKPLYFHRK
Procedure: 2. Mineralocorticoid Receptor Binding Test:
The test was carried out as in 1., with the following modifications: cytosol from mineralocorticoid receptor-expressing insect cells (Hi5) was used, and the reference substance was ^3H-aldosterone.

androgen receptor [2] = target: T2, androgen receptor (Homo sapiens (Human), UniProt P10275); conditions: for IC50: read-out: Androgen receptor IC50, receptor binding, 3H-testosterone displacement; for Androgen receptor Competition factor: reference substance 3H-testosterone
T2 sequence (P10275 whole entry, species assumed): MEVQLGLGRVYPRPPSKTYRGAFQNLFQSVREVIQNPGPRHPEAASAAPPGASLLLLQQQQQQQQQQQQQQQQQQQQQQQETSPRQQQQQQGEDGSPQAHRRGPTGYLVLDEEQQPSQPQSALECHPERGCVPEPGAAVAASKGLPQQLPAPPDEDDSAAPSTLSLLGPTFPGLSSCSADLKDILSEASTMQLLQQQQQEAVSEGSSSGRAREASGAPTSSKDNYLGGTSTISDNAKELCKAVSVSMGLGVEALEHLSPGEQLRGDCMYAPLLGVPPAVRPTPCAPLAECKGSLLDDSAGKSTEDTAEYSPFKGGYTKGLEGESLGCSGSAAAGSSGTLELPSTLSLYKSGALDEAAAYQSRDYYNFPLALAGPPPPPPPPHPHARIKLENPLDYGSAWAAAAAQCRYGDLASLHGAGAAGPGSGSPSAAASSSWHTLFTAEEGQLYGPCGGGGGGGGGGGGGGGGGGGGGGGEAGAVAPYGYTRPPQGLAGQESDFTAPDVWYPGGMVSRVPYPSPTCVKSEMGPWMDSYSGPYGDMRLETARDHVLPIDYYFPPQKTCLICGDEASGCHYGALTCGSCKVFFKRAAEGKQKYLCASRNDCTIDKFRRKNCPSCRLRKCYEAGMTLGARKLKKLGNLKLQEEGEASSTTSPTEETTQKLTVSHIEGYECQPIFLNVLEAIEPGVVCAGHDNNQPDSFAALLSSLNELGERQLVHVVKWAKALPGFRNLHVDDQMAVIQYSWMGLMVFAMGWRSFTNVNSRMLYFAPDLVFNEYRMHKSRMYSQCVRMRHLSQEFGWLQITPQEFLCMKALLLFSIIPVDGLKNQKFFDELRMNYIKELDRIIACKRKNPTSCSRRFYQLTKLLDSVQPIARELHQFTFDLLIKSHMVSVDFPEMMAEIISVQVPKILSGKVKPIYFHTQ
Procedure: 3. Androgen Receptor Binding Test:
The test was carried out as in 1., with the following modifications: cytosol from androgen receptor-expressing insect cells (Hi5) was used, and the reference substance was ^3H-testosterone.

[3] = target: fusion protein from the PR-ligand-binding domain and a Gal4-transactivation domain (Homo sapiens (Human), UniProt P06401); assay: cell-based; conditions: for Progesterone receptor Agonism EC50 / Progesterone receptor Agonism efficacy: in-vitro transactivation, CHO K1 reporter cells; for Progesterone receptor Agonism EC50: 16 hours
Chain of fusion protein from the PR-ligand-binding domain and a Gal4-transactivation domain (P06401 679-913): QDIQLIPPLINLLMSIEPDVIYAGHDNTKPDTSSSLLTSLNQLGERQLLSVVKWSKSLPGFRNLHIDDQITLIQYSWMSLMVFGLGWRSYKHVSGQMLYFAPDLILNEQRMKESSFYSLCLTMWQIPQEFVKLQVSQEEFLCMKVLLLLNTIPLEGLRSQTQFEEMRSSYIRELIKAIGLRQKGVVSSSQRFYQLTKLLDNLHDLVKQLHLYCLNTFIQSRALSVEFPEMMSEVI
Procedure: 4. Determination of Progestational Action by Means of Transactivation Tests:
The test compounds were added eight hours later, and the cells were incubated with the compounds for 16 hours. The tests were carried out in triplicate. At the end of incubation the medium containing the effector was removed and replaced with lysis buffer. After luciferase assay substrate (Promega, #E1501) had been added, the 96-well plates were then put in a microplate luminometer (Pherastar, BMG Labtech), and the luminescence was measured. The IC50 values were evaluated using software for calculating dose-effect relations.

[4] = target: T1, mineralocorticoid receptor; assay: Antimineralocorticoid action by transactivation test (MDCK luciferase reporter cells); type: cell-based; conditions: in-vitro transactivation, 1 nM aldosterone; for IC50: read-out: Mineralocorticoid receptor Antagonism IC50
Procedure: 5. Determination of Antimineralocorticoid Action by Means of Transactivation Tests:
The antimineralocorticoid activity of the test substances was determined as for the transactivation tests described above.
The following modifications were undertaken: In this case reporter cell lines were used (MDCK cells) that express the human mineralocorticoid receptor, and transiently contain a reporter construct that contains luciferase under the control of a steroid hormone-responsive promoter.
For determination of antimineralocorticoid efficacy, 1 nM aldosterone (SIGMA A-6628, Lot 22H4033) was added to the cells, to achieve almost maximum stimulation of the reporter gene. Inhibition of the effect indicated a mineralocorticoid-antagonistic action of the substances (Table 2; for comparison, corresponding values for drospirenone (A)).

androgen receptor [5] = target: T2, androgen receptor; assay: cell-based; conditions: for Androgen receptor Agonism efficacy / Androgen receptor Antagonism efficacy: in-vitro transactivation, PC3 cells; for Androgen receptor Antagonism efficacy: 0.05 nM R1881
Procedure: 6. Determination of Androgenic/Antiandrogenic Action by Means of Transactivation Tests:
The androgenic/antiandrogenic action of the test substances was determined as for the transactivation tests described above.
The following modifications were made: In this case reporter cell lines were used (PC3 cells) that express the androgen receptor, and a reporter construct that contains luciferase under the control of a steroid hormone-responsive promoter.
For determination of the antiandrogenic efficacy, 0.05 nM R1881 was added to the cells, in order to achieve almost maximum stimulation of the reporter gene.

progesterone receptor = progesterone receptor (Homo sapiens (Human), UniProt P06401); conditions: for Progesterone receptor (PR) Competition factor: CF of 1 = affinity of progesterone, CF >1 lower affinity; for CF PR/CF MR: ratio of the competition factors CF(PR) and CF(MR); for IC50: read-out: Progesterone receptor (PR) IC50, receptor binding, 3H-progesterone displacement
Chain of progesterone receptor (P06401 whole entry, species assumed): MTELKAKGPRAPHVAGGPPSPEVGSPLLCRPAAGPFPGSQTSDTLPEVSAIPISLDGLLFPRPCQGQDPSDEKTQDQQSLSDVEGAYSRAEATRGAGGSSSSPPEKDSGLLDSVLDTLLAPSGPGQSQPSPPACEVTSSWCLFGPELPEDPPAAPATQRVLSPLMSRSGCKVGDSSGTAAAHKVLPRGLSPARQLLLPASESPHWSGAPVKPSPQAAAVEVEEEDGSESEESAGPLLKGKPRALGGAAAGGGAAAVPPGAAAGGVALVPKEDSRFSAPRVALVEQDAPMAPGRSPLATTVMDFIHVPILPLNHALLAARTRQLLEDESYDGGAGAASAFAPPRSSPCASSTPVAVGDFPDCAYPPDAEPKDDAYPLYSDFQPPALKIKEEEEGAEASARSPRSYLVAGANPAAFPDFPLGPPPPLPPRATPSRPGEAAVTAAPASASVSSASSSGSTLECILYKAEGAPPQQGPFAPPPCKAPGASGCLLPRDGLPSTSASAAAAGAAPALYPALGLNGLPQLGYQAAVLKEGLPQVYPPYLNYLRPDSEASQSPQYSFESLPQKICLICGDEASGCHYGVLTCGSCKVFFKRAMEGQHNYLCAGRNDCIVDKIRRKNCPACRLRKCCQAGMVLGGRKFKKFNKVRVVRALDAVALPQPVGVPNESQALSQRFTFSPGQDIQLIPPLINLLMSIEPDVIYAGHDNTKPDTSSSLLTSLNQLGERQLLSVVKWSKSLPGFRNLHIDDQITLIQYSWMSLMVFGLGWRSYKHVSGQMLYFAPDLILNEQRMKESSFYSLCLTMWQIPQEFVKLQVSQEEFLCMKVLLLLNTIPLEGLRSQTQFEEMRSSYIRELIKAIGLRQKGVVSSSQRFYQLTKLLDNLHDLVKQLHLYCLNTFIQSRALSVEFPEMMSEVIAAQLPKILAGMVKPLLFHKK
Procedure: Progesterone Receptor Binding Test:
Using cytosol from progesterone receptor-expressing insect cells (Hi5), competitive binding to the progesterone receptor was determined from the ability to displace ^3H-progesterone as reference substance from the receptor.

SMILES | Mineralocorticoid receptor (MR) Competition factor [1] | IC50 (androgen receptor [2]) | Androgen receptor Competition factor (androgen receptor [2]) | Progesterone receptor Agonism EC50 [3] | Mineralocorticoid receptor Antagonism efficacy [4] | IC50 [4] | EC50 (androgen receptor [5]) | IC50 (androgen receptor [5]) | Androgen receptor Agonism efficacy (androgen receptor [5]) | Androgen receptor Antagonism efficacy (androgen receptor [5]) | Progesterone receptor (PR) Competition factor (progesterone receptor) | CF PR/CF MR (progesterone receptor) | IC50 (progesterone receptor) | EC50 [3] | Progesterone receptor Agonism efficacy [3] | Mineralocorticoid receptor Antagonism IC50 [4]
CC[C@]12CC[C@H]3[C@@H](C=CC4=CC(=O)CC[C@@H]43)[C@@H]1CC[C@@]21C=CC(=O)O1 (stereo in doubt) [Example 7, 17β-Hydroxy-18-methyl-19-nor-17α-pregna-4,6,20(Z)-trien-3-one-21-carboxylic acid γ-lactone] | 3.9 | 2600 nM | 112.0 | inactive | 94.2% | 100 nM | 1000 nM | 100 nM | 5% | 59.23% | 6.15 | 1.58 | 110 nM | – | – | –
CC[C@]12CC[C@H]3[C@@H]([C@H](C)CC4=CC(=O)CC[C@@H]43)[C@@H]1CC[C@@]21C=CC(=O)O1 (stereo in doubt) [Example 8A, 17β-Hydroxy-7α,18-dimethyl-19-nor-17α-pregna-4,20(Z)-dien-3-one-21-carboxylic acid γ-lactone] | 1.0 | 43 nM | 1.3 | inactive | 113.8% | 11 nM | 1.7 nM | 1000 nM | 78.75% | 5% | 5.95 | 5.95 | 160 nM | – | – | –
CC[C@@H]1CC2=CC(=O)CC[C@@H]2[C@H]2CC[C@@]3(CC)[C@@H](CC[C@@]34C=CC(=O)O4)[C@H]12 (stereo in doubt) [Example 9A, 17β-Hydroxy-7α-ethyl-18-methyl-19-nor-17α-pregna-4,20(Z)-dien-3-one-21-carboxylic acid γ-lactone] | 1.6 | 76 nM | 2.3 | inactive | 97.6% | 130 nM | 5.1 nM | 1000 nM | 63.33% | 5% | 25.12 | 15.70 | 670 nM | – | – | –
C=C[C@@H]1CC2=CC(=O)CC[C@@H]2[C@H]2CC[C@@]3(CC)[C@@H](CC[C@@]34C=CC(=O)O4)[C@@H]21 (stereo in doubt) [Example 10A, 17β-Hydroxy-7α-vinyl-18-methyl-19-nor-17α-pregna-4,20(Z)-dien-3-one-21-carboxylic acid γ-lactone] | 5.1 | 50 nM | 1.8 | – | 80.0% | 940 nM | 1.3 nM | 1000 nM | 74.78% | 5% | 18.90 | 3.71 | 450 nM | 140 nM | 52.4% | –
CC[C@]12CC[C@H]3[C@@H]([C@H](C4CC4)CC4=CC(=O)CC[C@@H]43)[C@@H]1CC[C@@]21C=CC(=O)O1 (stereo in doubt) [Example 11A, 17β-Hydroxy-7α-cyclopropyl-18-methyl-19-nor-17α-pregna-4,20(Z)-dien-3-one-21-carboxylic acid γ-lactone] | 2.4 | 94 nM | 3.4 | – | 88.8% | 230 nM | 10 nM | 16 nM | 41.38% | 34.45% | 21.03 | 8.76 | 500 nM | 120 nM | 47.7% | –
C[C@]12CC[C@H]3[C@@H]([C@H](C4CC4)CC4=CC(=O)CC[C@@H]43)[C@@H]1CC[C@@]21C=CC(=O)O1 (stereo in doubt) [Example 12A, 17β-Hydroxy-7α-cyclopropyl-19-nor-17α-pregna-4,20(Z)-dien-3-one-21-carboxylic acid γ-lactone] | 12.1 | 300 nM | 9.6 | inactive | 116.9% | 110 nM | 67 nM | 48 nM | 21.13% | 69.75% | 109.04 | 9.01 | 2600 nM | – | – | –
CC[C@]12CC[C@H]3[C@@H](CCC4=C(Cl)C(=O)CC[C@@H]43)[C@@H]1CC[C@@]21C=CC(=O)O1 [Example 13, 4-Chloro-17β-hydroxy-18-methyl-19-nor-17α-pregna-4,20(Z)-dien-3-one-21-carboxylic acid γ-lactone] | 47.0 | 170 nM | 8.3 | – | – | – | 57 nM | 12 nM | 33.71% | 44.18% | 28.06 | 0.60 | 750 nM | 1000 nM | 25.3% | inactive
C[C@]12CC[C@H]3[C@@H](CCC4=C(Cl)C(=O)CC[C@@H]43)[C@@H]1CC[C@@]21C=CC(=O)O1 [Example 14, 4-Chloro-17β-hydroxy-19-nor-17α-pregna-4,20(Z)-dien-3-one-21-carboxylic acid γ-lactone] | 39.0 | 140 nM | 7.5 | inactive | 21.6% | 700 nM | 100 nM | 70.5 nM | 22.74% | 63.26% | 53.06 | 1.36 | 1200 nM | – | – | –
